Experimental data published in the kinase profiling compilation of Christmann-Franck et al. (2016).

How the values were obtained:
Assay in all cases: KINOMEscan competition binding
Details in all cases: compound 10.0 µM
STK25 (human) = STK25 (human) (UniProt O00506)
[1] = tested on: FLT3 (human), P36888 [R834Q]
LCK (human) = LCK (human) (UniProt P06239)
EIF2AK1 (human) = EIF2AK1 (human) (UniProt Q9BQI3)
MAP2K6 (human) = MAP2K6 (human) (UniProt P52564)
CDC42BPG (human) = CDC42BPG (human) (UniProt Q6DT37)
EPHA6 (human) = EPHA6 (human) (UniProt Q9UF33)
Sequence of EPHA6 (human) (Q9UF33 whole entry, looked up): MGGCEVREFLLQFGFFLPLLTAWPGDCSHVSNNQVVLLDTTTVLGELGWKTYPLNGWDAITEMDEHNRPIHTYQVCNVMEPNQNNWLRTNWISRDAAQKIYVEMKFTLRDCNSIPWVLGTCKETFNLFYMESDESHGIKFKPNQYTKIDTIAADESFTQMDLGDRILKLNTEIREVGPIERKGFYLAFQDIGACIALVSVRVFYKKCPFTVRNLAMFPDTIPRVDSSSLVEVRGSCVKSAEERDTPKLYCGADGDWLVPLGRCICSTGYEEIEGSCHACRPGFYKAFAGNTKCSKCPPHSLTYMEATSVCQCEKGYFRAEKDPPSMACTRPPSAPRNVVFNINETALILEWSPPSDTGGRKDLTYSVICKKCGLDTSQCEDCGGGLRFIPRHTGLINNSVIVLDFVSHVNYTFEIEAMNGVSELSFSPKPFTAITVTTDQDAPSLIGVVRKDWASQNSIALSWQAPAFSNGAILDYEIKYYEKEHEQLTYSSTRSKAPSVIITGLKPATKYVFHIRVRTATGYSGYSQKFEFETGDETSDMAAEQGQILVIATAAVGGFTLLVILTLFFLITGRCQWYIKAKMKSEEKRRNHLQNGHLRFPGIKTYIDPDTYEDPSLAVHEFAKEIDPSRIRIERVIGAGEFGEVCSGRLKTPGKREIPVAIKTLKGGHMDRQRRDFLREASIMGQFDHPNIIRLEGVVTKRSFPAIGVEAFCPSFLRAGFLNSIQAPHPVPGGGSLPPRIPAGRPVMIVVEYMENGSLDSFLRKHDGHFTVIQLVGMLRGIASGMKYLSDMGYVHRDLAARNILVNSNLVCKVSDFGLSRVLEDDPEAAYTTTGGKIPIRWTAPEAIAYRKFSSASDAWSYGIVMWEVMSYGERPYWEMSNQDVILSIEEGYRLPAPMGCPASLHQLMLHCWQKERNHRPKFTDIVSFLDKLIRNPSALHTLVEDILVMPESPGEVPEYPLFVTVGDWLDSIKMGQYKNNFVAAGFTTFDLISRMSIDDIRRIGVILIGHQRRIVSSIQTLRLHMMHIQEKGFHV

MAPKAPK2 (human) = MAPKAPK2 (human) (UniProt P49137)
AKT1 (human) = AKT1 (human) (UniProt P31749)
CAMK2G (human) = CAMK2G (human) (UniProt Q13555)
CSNK1A1 (human) = CSNK1A1 (human) (UniProt P48729)
MAP4K3 (human) = MAP4K3 (human) (UniProt Q8IVH8)
MAPKAPK5 (human) = MAPKAPK5 (human) (UniProt Q8IW41)
CLK2 (human) = CLK2 (human) (UniProt P49760)
CDC42BPA (human) = CDC42BPA (human) (UniProt Q5VT25)
CLK1 (human) = CLK1 (human) (UniProt P49759)
GRK1 (human) = GRK1 (human) (UniProt Q15835)
GRK7 (human) = GRK7 (human) (UniProt Q8WTQ7)
Sequence of GRK7 (human) (Q8WTQ7 whole entry, looked up): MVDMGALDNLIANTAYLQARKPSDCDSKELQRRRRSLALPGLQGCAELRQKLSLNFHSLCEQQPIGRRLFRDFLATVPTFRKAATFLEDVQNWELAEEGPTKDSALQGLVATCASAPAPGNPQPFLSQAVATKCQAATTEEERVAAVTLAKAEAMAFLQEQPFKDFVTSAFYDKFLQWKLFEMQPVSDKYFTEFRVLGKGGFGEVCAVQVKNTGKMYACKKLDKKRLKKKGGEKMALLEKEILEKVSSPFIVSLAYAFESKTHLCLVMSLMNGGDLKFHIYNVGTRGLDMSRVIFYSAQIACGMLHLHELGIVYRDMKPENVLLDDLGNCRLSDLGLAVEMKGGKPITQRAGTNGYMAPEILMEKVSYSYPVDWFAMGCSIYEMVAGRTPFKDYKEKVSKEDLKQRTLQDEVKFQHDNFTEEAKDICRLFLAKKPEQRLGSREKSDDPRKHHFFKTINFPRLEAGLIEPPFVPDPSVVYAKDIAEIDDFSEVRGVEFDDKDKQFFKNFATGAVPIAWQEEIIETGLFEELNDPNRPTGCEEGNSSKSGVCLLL

PIK3C2B (human) = PIK3C2B (human) (UniProt O00750)
MAP3K11 (human) = MAP3K11 (human) (UniProt Q16584)
CSNK1G2 (human) = CSNK1G2 (human) (UniProt P78368)
CDK13 (human) = CDK13 (human) (UniProt Q14004)
Sequence of CDK13 (human) (Q14004 whole entry, looked up): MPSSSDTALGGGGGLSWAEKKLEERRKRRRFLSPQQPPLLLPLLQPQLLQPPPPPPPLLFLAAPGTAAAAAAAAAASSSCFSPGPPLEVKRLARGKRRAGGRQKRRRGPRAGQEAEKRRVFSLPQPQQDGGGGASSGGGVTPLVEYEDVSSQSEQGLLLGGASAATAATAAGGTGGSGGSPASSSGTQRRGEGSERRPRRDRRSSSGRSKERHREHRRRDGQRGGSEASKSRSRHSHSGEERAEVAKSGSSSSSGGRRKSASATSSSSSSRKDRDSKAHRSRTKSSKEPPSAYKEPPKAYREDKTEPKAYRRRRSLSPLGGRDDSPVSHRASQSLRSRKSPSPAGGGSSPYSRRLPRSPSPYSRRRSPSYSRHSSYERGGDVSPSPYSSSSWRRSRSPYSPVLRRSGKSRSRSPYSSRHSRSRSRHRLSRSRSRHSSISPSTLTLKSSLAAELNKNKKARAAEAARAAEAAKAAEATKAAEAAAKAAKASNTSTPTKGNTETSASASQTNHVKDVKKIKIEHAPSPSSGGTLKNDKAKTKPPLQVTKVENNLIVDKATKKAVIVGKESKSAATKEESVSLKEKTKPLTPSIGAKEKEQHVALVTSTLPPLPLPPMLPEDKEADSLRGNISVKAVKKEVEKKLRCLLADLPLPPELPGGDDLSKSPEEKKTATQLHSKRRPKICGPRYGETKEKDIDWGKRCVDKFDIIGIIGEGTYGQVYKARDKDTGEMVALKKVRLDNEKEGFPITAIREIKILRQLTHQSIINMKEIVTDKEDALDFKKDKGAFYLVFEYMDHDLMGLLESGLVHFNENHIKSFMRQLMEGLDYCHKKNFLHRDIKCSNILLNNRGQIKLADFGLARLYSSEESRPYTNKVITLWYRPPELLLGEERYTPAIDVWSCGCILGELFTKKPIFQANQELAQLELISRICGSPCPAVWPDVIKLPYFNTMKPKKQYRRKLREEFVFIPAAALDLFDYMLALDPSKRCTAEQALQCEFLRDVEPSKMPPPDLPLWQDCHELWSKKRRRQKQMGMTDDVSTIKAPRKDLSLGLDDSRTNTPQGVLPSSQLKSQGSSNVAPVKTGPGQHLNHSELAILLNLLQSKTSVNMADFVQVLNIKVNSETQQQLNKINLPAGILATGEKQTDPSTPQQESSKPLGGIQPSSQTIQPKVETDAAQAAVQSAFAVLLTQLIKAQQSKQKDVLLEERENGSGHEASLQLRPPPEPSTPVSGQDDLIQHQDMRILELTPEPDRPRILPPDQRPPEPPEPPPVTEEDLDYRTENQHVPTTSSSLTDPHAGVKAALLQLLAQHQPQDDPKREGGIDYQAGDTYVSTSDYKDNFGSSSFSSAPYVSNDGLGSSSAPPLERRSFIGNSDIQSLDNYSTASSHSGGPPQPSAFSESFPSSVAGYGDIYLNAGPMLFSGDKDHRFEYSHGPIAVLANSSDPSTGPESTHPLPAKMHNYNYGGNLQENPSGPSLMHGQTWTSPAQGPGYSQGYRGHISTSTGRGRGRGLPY

NIM1 (human) = NIM1 (human) (UniProt Q8IY84)
IKBKE (human) = IKBKE (human) (UniProt Q14164)
STK17A (human) = STK17A (human) (UniProt Q9UEE5)
PIK3CB (human) = PIK3CB (human) (UniProt P42338)
EPHB1 (human) = EPHB1 (human) (UniProt P54762)
MTOR (human) = MTOR (human) (UniProt P42345)
DYRK1A (human) = DYRK1A (human) (UniProt Q13627)
MAPK7 (human) = MAPK7 (human) (UniProt Q13164)
ACVR1 (human) = ACVR1 (human) (UniProt Q04771)
Sequence of ACVR1 (human) (Q04771 whole entry, looked up): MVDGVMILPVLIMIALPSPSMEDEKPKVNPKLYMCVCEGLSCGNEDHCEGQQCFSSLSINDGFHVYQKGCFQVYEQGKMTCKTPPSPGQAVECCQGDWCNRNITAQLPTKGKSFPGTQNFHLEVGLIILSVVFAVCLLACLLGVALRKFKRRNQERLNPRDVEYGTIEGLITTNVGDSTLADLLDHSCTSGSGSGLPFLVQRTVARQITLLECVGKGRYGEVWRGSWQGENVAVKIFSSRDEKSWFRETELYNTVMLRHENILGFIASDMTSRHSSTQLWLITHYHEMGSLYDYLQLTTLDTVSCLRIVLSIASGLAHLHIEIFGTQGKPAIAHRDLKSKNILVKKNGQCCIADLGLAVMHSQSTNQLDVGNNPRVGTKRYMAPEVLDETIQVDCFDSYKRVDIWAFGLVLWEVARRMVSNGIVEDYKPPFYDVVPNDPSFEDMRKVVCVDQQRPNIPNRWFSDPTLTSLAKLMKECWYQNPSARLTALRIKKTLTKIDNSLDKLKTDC

PRKG2 (human) = PRKG2 (human) (UniProt Q13237)
CSNK1E (human) = CSNK1E (human) (UniProt P49674)
MARK1 (human) = MARK1 (human) (UniProt Q9P0L2)
[2] = tested on: EGFR (human), P00533 [T790M/L858R]
AURKB (human) = AURKB (human) (UniProt Q96GD4)
TIE1 (human) = TIE1 (human) (UniProt P35590)
MAP3K12 (human) = MAP3K12 (human) (UniProt Q12852)
Sequence of MAP3K12 (human) (Q12852 whole entry, looked up): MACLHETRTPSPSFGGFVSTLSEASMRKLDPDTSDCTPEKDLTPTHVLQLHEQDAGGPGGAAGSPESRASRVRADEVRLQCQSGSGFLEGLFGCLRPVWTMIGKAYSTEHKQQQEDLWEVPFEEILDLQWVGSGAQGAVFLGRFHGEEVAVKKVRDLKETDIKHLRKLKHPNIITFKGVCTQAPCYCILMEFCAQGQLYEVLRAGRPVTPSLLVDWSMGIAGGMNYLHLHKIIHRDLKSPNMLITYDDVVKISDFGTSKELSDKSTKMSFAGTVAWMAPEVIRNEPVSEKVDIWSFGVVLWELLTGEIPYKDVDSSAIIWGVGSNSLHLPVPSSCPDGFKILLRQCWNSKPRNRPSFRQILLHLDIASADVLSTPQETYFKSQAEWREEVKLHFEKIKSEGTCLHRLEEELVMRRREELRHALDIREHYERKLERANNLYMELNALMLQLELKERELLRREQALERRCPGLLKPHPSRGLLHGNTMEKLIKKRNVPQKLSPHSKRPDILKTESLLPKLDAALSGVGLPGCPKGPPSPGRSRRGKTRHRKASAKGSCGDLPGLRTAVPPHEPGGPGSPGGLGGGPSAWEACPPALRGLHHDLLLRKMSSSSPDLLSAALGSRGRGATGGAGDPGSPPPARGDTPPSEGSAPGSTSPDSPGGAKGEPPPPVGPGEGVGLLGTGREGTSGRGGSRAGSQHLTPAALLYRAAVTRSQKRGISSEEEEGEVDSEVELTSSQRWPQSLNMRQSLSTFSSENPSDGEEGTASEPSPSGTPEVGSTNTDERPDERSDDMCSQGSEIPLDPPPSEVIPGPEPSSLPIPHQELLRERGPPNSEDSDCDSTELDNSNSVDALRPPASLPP

ACVRL1 (human) = ACVRL1 (human) (UniProt P37023)
MAP4K1 (human) = MAP4K1 (human) (UniProt Q92918)

Sequence of MAP2K6 (human) (P52564 whole entry, looked up): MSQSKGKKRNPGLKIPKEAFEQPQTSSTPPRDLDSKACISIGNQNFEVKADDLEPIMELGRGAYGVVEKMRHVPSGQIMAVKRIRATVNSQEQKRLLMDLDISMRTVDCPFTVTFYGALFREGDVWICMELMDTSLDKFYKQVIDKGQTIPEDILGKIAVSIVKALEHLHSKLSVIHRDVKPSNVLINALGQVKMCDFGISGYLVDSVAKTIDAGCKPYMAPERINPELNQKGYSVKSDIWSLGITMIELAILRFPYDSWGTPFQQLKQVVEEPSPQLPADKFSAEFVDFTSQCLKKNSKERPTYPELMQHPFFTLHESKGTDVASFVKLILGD

Row | SMILES | kinase still bound, per cent of control (STK25 (human)) | kinase still bound, per cent of control [1] | kinase still bound, per cent of control (LCK (human)) | kinase still bound, per cent of control (EIF2AK1 (human)) | kinase still bound, per cent of control (MAP2K6 (human)) | kinase still bound, per cent of control (CDC42BPG (human)) | kinase still bound, per cent of control (EPHA6 (human)) | kinase still bound, per cent of control (MAPKAPK2 (human)) | kinase still bound, per cent of control (AKT1 (human)) | kinase still bound, per cent of control (CAMK2G (human)) | kinase still bound, per cent of control (CSNK1A1 (human)) | kinase still bound, per cent of control (MAP4K3 (human)) | kinase still bound, per cent of control (MAPKAPK5 (human)) | kinase still bound, per cent of control (CLK2 (human)) | kinase still bound, per cent of control (CDC42BPA (human)) | kinase still bound, per cent of control (CLK1 (human)) | kinase still bound, per cent of control (GRK1 (human)) | kinase still bound, per cent of control (GRK7 (human)) | kinase still bound, per cent of control (PIK3C2B (human)) | kinase still bound, per cent of control (MAP3K11 (human)) | further results
1 | COc1cc(C(=O)N2CCC(N3CCN(C)CC3)CC2)ccc1Nc1ncc2c(n1)N(C)c1ccccc1C(=O)N2C | 68% | 100% | 100% | 100% | 83% | 100% | 89% | 100% | 79% | 47% | 100% | 71% | 97% | 72% | 100% | 28% | 91% | 100% | 100% | 100% | kinase still bound, per cent of control (CSNK1G2 (human)): 100%; kinase still bound, per cent of control (CDK13 (human)): 100%; kinase still bound, per cent of control (NIM1 (human)): 100%; kinase still bound, per cent of control (IKBKE (human)): 96%; kinase still bound, per cent of control (STK17A (human)): 100%; kinase still bound, per cent of control (PIK3CB (human)): 96%; kinase still bound, per cent of control (EPHB1 (human)): 98%; kinase still bound, per cent of control (MTOR (human)): 97%; kinase still bound, per cent of control (DYRK1A (human)): 99%; kinase still bound, per cent of control (MAPK7 (human)): 0.05%; kinase still bound, per cent of control (ACVR1 (human)): 98%; kinase still bound, per cent of control (PRKG2 (human)): 74%; kinase still bound, per cent of control (CSNK1E (human)): 95%; kinase still bound, per cent of control (MARK1 (human)): 87%; kinase still bound, per cent of control [2]: 84%; kinase still bound, per cent of control (AURKB (human)): 38%; kinase still bound, per cent of control (TIE1 (human)): 100%; kinase still bound, per cent of control (MAP3K12 (human)): 81%; kinase still bound, per cent of control (ACVRL1 (human)): 100%; kinase still bound, per cent of control (MAP4K1 (human)): 100%
2 | COc1cc2ncnc(-n3nc(-c4ccccn4)nc3N)c2cc1OC | 33% | 22% | 5.2% | 51% | 46% | 96% | 23% | 100% | 100% | 56% | 1.4% | 53% | 100% | 1.8% | 99% | 0.6% | 41% | 11% | 0.35% | 63% | kinase still bound, per cent of control (CSNK1G2 (human)): 1.1%; kinase still bound, per cent of control (CDK13 (human)): 17%; kinase still bound, per cent of control (NIM1 (human)): 89%; kinase still bound, per cent of control (IKBKE (human)): 9.6%; kinase still bound, per cent of control (STK17A (human)): 1.6%; kinase still bound, per cent of control (PIK3CB (human)): 5%; kinase still bound, per cent of control (EPHB1 (human)): 32%; kinase still bound, per cent of control (MTOR (human)): 5%; kinase still bound, per cent of control (DYRK1A (human)): 0.1%; kinase still bound, per cent of control (MAPK7 (human)): 83%; kinase still bound, per cent of control (ACVR1 (human)): 0.2%; kinase still bound, per cent of control (PRKG2 (human)): 75%; kinase still bound, per cent of control (CSNK1E (human)): 1.6%; kinase still bound, per cent of control (MARK1 (human)): 86%; kinase still bound, per cent of control [2]: 84%; kinase still bound, per cent of control (AURKB (human)): 0.4%; kinase still bound, per cent of control (TIE1 (human)): 93%; kinase still bound, per cent of control (MAP3K12 (human)): 52%; kinase still bound, per cent of control (ACVRL1 (human)): 15%; kinase still bound, per cent of control (MAP4K1 (human)): 56%
3 | O=C(Nc1cccc(Nc2ncc(Br)c(NCCc3cnc[nH]3)n2)c1)N1CCCC1 | 30% | 7% | 3.4% | 100% | 22% | 49% | 54% | 100% | 100% | 52% | 28% | 4.6% | 28% | 2.2% | 95% | 13% | 47% | 34% | 89% | 0.75% | kinase still bound, per cent of control (CSNK1G2 (human)): 76%; kinase still bound, per cent of control (CDK13 (human)): 0.35%; kinase still bound, per cent of control (NIM1 (human)): 0.05%; kinase still bound, per cent of control (IKBKE (human)): 4.6%; kinase still bound, per cent of control (STK17A (human)): 0.2%; kinase still bound, per cent of control (PIK3CB (human)): 100%; kinase still bound, per cent of control (EPHB1 (human)): 85%; kinase still bound, per cent of control (MTOR (human)): 87%; kinase still bound, per cent of control (DYRK1A (human)): 12%; kinase still bound, per cent of control (MAPK7 (human)): 62%; kinase still bound, per cent of control (ACVR1 (human)): 76%; kinase still bound, per cent of control (PRKG2 (human)): 4.8%; kinase still bound, per cent of control (CSNK1E (human)): 70%; kinase still bound, per cent of control (MARK1 (human)): 0.45%; kinase still bound, per cent of control [2]: 26%; kinase still bound, per cent of control (AURKB (human)): 0%; kinase still bound, per cent of control (TIE1 (human)): 2.2%; kinase still bound, per cent of control (MAP3K12 (human)): 21%; kinase still bound, per cent of control (ACVRL1 (human)): 100%; kinase still bound, per cent of control (MAP4K1 (human)): 13%
